As usually defined, the IC50 is the midpoint of a concentration-inhibition curve.

In the first assay the test system is circadian rhythms in rats.
Assay: not given
The note with it: cited from earlier work.
On to `COc1ccc2[nH]cc(CCNC(C)=O)c2c1` [melatonin, N-acetyl-5-methoxytryptamine], for which the “effect of exogenous melatonin administration on circadian rhythms” value is reported as “synchronize circadian rhythms in rats”.

The target in another assay is T1, human melatonin ML1a receptor (Homo sapiens, UniProt P48039).
T1 construct: expressed in transfected cells; membrane homogenates
T1 sequence (P48039 whole entry): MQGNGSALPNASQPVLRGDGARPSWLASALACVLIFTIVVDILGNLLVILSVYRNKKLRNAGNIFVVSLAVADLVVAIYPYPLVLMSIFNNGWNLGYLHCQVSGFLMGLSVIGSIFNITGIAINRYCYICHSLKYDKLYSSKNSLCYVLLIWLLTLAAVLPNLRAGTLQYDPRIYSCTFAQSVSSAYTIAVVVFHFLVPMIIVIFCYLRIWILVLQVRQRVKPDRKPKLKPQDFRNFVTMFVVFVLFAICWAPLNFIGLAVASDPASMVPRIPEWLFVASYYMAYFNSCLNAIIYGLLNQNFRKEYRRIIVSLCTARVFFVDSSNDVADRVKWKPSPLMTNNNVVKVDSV
The assay can be described thus: Melatonergic receptor binding activity (2-[125I]-iodomelatonin binding, membranes of NIH-3T3 cells expressing ML1a). The note with it: 37° C. for 1 hour, read-out: Melatonin Binding Affinity (IC50). The protocol:
Melatonergic Receptor Binding Activity
(a) TME=50 mM Tris buffer containing 12.5 mM MgCl2, and 2 mM EDTA, pH 7.4 at 37° C. with concentrated HCl.
(b) Wash buffer: 20 mM Tris base containing 2 mM MgCl2, pH 7.4 at room temperature.
(c) 10^-4 M melatonin (10^-5 M final concentration).
(d) 2-[^125 I]-iodomelatonin, 0.1 M final concentration
The melatonin ML1a receptor cDNA was subcloned into pcDNA3 and introduced into NIH-3T3 cells using Lipofectamine. Transformed NIH-3T3 cells resistant to geneticin (G-418) were isolated, and single colonies expressing high levels of 2[^125 I]-iodomelatonin binding were isolated. Cells are maintained in DMEM supplemented with 10% calf serum and G-418 (0.5 g/liter). Cells are grown to confluency in T-175 flasks, scraped using Hank's balanced salt solution, and frozen at -80° C. For preparing membrane homogenates, pellets are thawed on ice, and resuspended in TME buffer in the presence of 10 μg/ml aprotinin and leupeptin, and 100 ,μM phenylmethylsulfonylfluoride. The cells were then homogenized using a dounce homogenizer, and centrifuged. The resulting pellet was resuspended with dounce homogenizer in TME (supplemented with the above protease inhibitors) and frozen. On the day of assay, the small aliquot was thawed on ice and resuspended in ice cold TME (1:50-1:100 v/v) and held on ice until assayed.
37° C. for 1 hour. Reaction is terminated by filtration. Filters are washed 3 times.
^a = IC50 values for ML1a human melatonin receptor binding
Take `CCC(=O)N[C@@H]1CCN(c2cccc3c2CCO3)C1` [Example 4, (R)-N-[N-(2,3-dihydrobenzofuran-4-yl)-pyrrolidin-3-yl]propanamide]: the IC50 fell in the range of 10 to 200 nM. On the same count and under the same terms, the figure for `O=C(N[C@@H]1CCN(c2cccc3c2CCO3)C1)C1CC1` [Example 10, (R)-N-[N-(2,3-dihydrobenzofuran-4-yl)-pyrrolidin-3-yl]cyclopropane carboxamide] is < 10 nM; for `COCC(=O)N[C@H]1CCN(c2cccc3c2CCO3)C1` [Example 11, (S)-N-[N-(2,3-dihydrobenzofuran-4-yl)-pyrrolidin-3-yl]methoxyacetamide] it is < 10 nM. For the molecule `CCC(=O)N[C@H]1CCN(c2cccc3c2CCCO3)C1` [Example 13, (S)-N-[N-(2H-2,3-dihydrobenzopyran-5-yl)-pyrrolidin-3-yl]propanamide], the IC50 was < 10 nM. For the molecule `CC(=O)N[C@H]1CCN(c2cccc3c2OCCO3)C1` [Example 14, (S)-N-[N-(2,3-dihydro-1,4-benzodioxin-5-yl)-pyrrolidin-3-yl]acetamide], the IC50 lay in the range of 10 to 200 nM.

Take `CCNC(=O)N[C@H]1CCN(c2cccc3c2CCO3)C1` [Example 20, (S)-N-[N-(2,3-dihydrobenzofuran-4-yl)-pyrrolidin-3-yl]-N'-ethyl urea]: the IC50 was < 10 nM. On the same count and under the same terms, the figure for `CCNC(=O)N[C@@H]1CCN(c2cccc3c2CCO3)C1` [Example 21, (R)-N-[N-(2,3-dihydrobenzofuran-4-yl)-pyrrolidin-3-yl]-N'-ethyl urea] is < 10 nM. Regarding `CCNC(=O)N[C@H]1CCN(c2cccc3c2OCCO3)C1` [Example 28, (S)-N-[N-(2,3-dihydro-1,4-benzodioxin-5-yl)-pyrrolidin-3-yl]-N'-ethyl urea], the IC50 lay within 10 to 200 nM.

On to `O=C(NC1CC1)N[C@@H]1CCN(c2cccc3c2CCO3)C1` [Example 30, (R)-N-[N-(2,3-Dihydrobenzofuran-4-yl)-Pyrrolidin-3-yl]-N'-Cylopropyl Urea], for which the IC50 lay within 10 to 200 nM. As to `CN(C)C(=O)N[C@H]1CCN(c2cccc3c2CCO3)C1` [Example 32, (S)-N-[N-(2,3-dihydrobenzofuran-4-yl)-pyrrolidin-3-yl]-N',N'-dimethyl urea], the IC50 fell in the range of 10 to 200 nM. On the same count and under the same terms, in the case of `CC(=O)N[C@H]1CCN(c2c(Cl)cc(Cl)c3c2CCO3)C1` [Example 35, (S)-N-[N-(5,7-Dichloro-2,3-Dihydrobenzofuran-4-yl)-Pyrrolidin-3-yl]Acetamide] it was < 10 nM; in that of `CCCC(=O)N[C@H]1CCN(c2c(Cl)ccc3c2CCO3)C1` [Example 36, (S)-N-[N-(5-chloro-2,3-dihydrobenzofuran-4-yl)-pyrrolidin-3-yl]butyramide], < 10 nM.

These data come from patent US6211225A, “Heterocyclic aminopyrrolidine derivatives as melatonergic agents” (Bristol-Meyers Squibb, priority 2000, dated 2001).
